Like-named read-outs stand apart in the source and are kept apart here.
Key:
[1] = tested on: antisulfamide rabbit antibody; assay: Example 4 dipstick test in meat (pig muscle) extract, sulfamide capture zone (format 2); type: binding
Method: (§1) This mixture is either prepared as required or lyophilisated for 20 hours. The Recovery System
(§2) The recovery system is similar to that of example 1. However, in the present case, it is an anti-mouse antibody that forms the first capture point where the monoclonal anti-TetR antibody will be recovered and it is a chicken anti-rabbit antibody that forms the second capture point where the antisulfamide antibody will be recovered.
(§3) 30 ml of a buffer of NaPi 50 mM, pH 8 is added to 10 g of pig muscle and the mixture is mixed with a mixer of type MiniMix (Interscience, F) for 2 minutes. The solution, collected in an Eppendorf tube, is then centrifuged for 1 minute at 6,000 rpm to recover the supernatant from it. 200 μL of supernatant are incubated for 15 minutes at 25° C. in the presence of 50 μL of the reagents prepared above. After this first incubation, the above-described recovery element is immersed in the solution. The final interpretation is made after a second incubation of 15 minutes.

[2] = tested on: tetracycline receptor (TetR); assay: Example 2 three-parameter dipstick test in milk, tetracycline capture zone (format 1); type: binding, E. Coli
Method: (§4) This mixture is prepared either as required or lyophilisated for 20 hours. The Recovery System
(§5) The other capture zones are identical but differently positioned, as in FIG. 2.
(§6) A single control zone serves as a reference for the three markers.
(§7) 200 μL of cold milk are incubated at 50° C. in the presence of 50 μl of the reagents prepared and/or lyophilisated as above. After 3 minutes of incubation at 50° C., the above-described recovery element is immersed in the solution. The final interpretation is made after 3 minutes of incubation by means of an optical dipstick reader available at Matest (Germany).
(§8) As a general rule, if the ratio of the intensities of the concerned test signal relative to the control signal is less than or equal to 1, the sample is considered as positive for the parameter (compound) concerned.

[3] = molecular target: T1, β-lactame receptor (RSA) (Staphylococcus aureus, UniProt P18357); type: binding; conditions: milk
T1 construct: made in house
T1 sequence (P18357 331-585 limits assumed): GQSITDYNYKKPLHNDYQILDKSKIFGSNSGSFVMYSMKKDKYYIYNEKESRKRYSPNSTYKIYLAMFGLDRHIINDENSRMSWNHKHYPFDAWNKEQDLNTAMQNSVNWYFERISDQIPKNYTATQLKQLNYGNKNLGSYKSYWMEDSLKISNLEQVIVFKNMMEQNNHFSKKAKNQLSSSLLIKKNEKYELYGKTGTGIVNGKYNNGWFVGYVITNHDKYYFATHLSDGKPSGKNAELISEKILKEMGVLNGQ
Method: (§9) This mixture is either prepared as required or lyophilisated for 20 hours.
(§10) 200 μL of cold milk are incubated for 15 minutes at 30° C. in the presence of 50 μL of the reagents prepared above. After this first incubation, the above-described recovery element is immersed in the solution. Final interpretation is made after a second incubation of 15 minutes.

[4] = tested on: tetracycline receptor (TetR); assay: Example 5 dipstick test in milk, tetracycline capture zone (format 1); type: binding, E. Coli
Method: as §9, §10

[5] = tested on: polyclonal antisulfamide rabbit antibody; assay: Example 5 dipstick test in milk, sulfamide capture zone (format 2); type: binding
Method: as §9, §10

[6] = tested on: biotinylated anti-sulfadimethoxin antibody; assay: Example 3 dipstick test in milk, sulfamide capture zone (format 2); type: binding
Method: (§11) The reactive mixture comprises: • 5 parts of β-lactame receptor (RSA) at a concentration of 360 nM; • 10 parts of a monoclonal anti-RSA antibody attached to colloidal gold (OD=10 at 520 nm); • 1 part of biotinylated and diluted anti-sulfadimethoxin in NaPi 50 mM, NaCl 150 mM, pH 7.8; • 10 parts of a dilution of BSA-sulfadimethoxin-gold of 40 nm; • 24 parts of Hepes buffer 120 mM, pH 8, BSA 2%, Dextran 1%, sucrose 5%. This mixture is prepared either as required or lyophilisated for 20 hours. Biotinylation of the Anti-Sulfadimethoxin Antibody
825 μL of a solution comprising 5 mg/ml of anti-sulfadimethoxin antibody dialysed in a carbonate buffer 100 mM, pH 9.2 are incubated in the presence of 165 μL of a solution of biotin-LC-NHS at 1.5 mg/ml (available at Perbio, Inc.) for 2 hours at 25° C. sheltered from light. The reaction is blocked by the addition of 10 μL of a solution of a Tris buffer 1M pH 8 for 30 minutes before dialysis 2× for 10 hours against a buffer of NaPi 50 mM, NaCl 150 mM, pH 7.8.
The preparation of BSA-sulfadimethoxin described in example no. 2 is used fixed to particles of colloidal gold in a protocol similar to that described in example no. 1 for preparing the control BSA-gold solution.
(§12) The recovery system is identical to that of example 1. However, in the present case, it is the biotinylated antisulfamide antibody that will be recovered in the avidine fixed at the second capture point above the control zone.
as §10

[7] = tested on: tetracycline receptor (TetR); assay: Example 4 dipstick test in meat (pig muscle) extract, tetracycline capture zone (format 2); type: binding, E. Coli
Method: as §1, §2, §3

[8] = molecular target: T1, β-lactame receptor (RSA); type: binding; conditions: milk; remark: listed apart in the source
Method: as §11, §12, §10

[9] = tested on: anti-sulfadimethoxin antibody; assay: Example 2 three-parameter dipstick test in milk, sulfadimethoxin capture zone (format 1); type: binding
Method: as §4, §5
The preparation is achieved by the procedure described by Dixon-Holland and Katz^(9). 100 mg of sulfadimethoxin and 200 mg of BSA solubilized in 25 ml of a mixture, comprising two parts of a phosphate buffer of 50 mM, pH 7.2 and 1 part of dioxane, are incubated in the presence of 120 μL of 25% glutaraldehyde stirred for 3 hours at 25° C. The solution is then dialysed for 6 days at 4° C. against 100 volumes of a buffer of NaPi 50 mM, pH 7.2 with a change of buffer every 12 hours.
as §6, §7, §8

[10] = molecular target: T1, β-lactame receptor (RSA); type: binding; conditions: milk; remark: listed apart in the source
Method: as §4, §5, §6, §7, §8

Question: What does the source list for `COc1cc(NS(=O)(=O)c2ccc(N)cc2)nc(OC)n1` [Sulfadimethoxin]?
Answer: Ratio of the measurement intensities S/C ([1]; sulfamide 50 ppb): 1.6; Ratio of the measurement intensities S/C ([1]; sulfamide 100 ppb): 1; Ratio of the measurement intensities S/C ([1]; sulfamide 150 ppb): 0.85; Ratio of the measurement intensities S/C ([1]; sulfamide 200 ppb): 0.7; Ratio of the measurement intensities S/C ([1]; tetracycline 100 + sulfamide 100 ppb together): 0.95; Ratio of the measurement intensities T/C ([2]; sulfamide 50 ppb): 1.9; Ratio of the measurement intensities T/C ([2]; sulfamide 100 ppb): 1.9; Ratio of the measurement intensities T/C ([2]; sulfamide 150 ppb): 2.1; Ratio of the measurement intensities T/C ([2]; sulfamide 200 ppb): 2.1; Ratio of the measurement intensities B/C ([3]; sulfamide 50 ppb): 2.1; Ratio of the measurement intensities B/C ([3]; sulfamide 100 ppb): 1.8; Ratio of the measurement intensities B/C ([3]; sulfamide 200 ppb): 1.8; Ratio of the measurement intensities T/C ([4]; sulfamide 50 ppb): 2.8; Ratio of the measurement intensities T/C ([4]; sulfamide 100 ppb): 2.7; Ratio of the measurement intensities T/C ([4]; sulfamide 200 ppb): 3; Ratio of the measurement intensities S/C ([5]; sulfamide 50 ppb): 1.3; Ratio of the measurement intensities S/C ([5]; sulfamide 100 ppb): 0.9; Ratio of the measurement intensities S/C ([5]; sulfamide 200 ppb): 0.3; Ratio of the measurement intensities S/C ([5]; β-lactame 4 + tetracycline 100 + sulfamide 100 ppb together): 0.8; Ratio of the measurement intensities S/C ([6]; sulfamide 50 ppb): 2; Ratio of the measurement intensities S/C ([6]; sulfamide 100 ppb): 1; Ratio of the measurement intensities S/C ([6]; sulfamide 150 ppb): 0.85; Ratio of the measurement intensities S/C ([6]; sulfamide 200 ppb): 0.7; Ratio of the measurement intensities S/C ([6]; β-lactame 4 + sulfamide 100 ppb together): 0.95; Ratio of the measurement intensities T/C ([7]; sulfamide 50 ppb): 3.4; Ratio of the measurement intensities T/C ([7]; sulfamide 100 ppb): 3.1; Ratio of the measurement intensities T/C ([7]; sulfamide 150 ppb): 3.4; Ratio of the measurement intensities T/C ([7]; sulfamide 200 ppb): 3; Ratio of the measurement intensities B/C ([8]; sulfamide 50 ppb): 1.95; Ratio of the measurement intensities B/C ([8]; sulfamide 100 ppb): 1.9; Ratio of the measurement intensities B/C ([8]; sulfamide 150 ppb): 2.2; Ratio of the measurement intensities B/C ([8]; sulfamide 200 ppb): 2.1; Ratio of the measurement intensities S/C ([9]; ampicillin 4 + tetracycline 75 + sulfamide 100 ppb together): 0.7; Ratio test/control ([9]; at the detection limit concentration): 0.8; Concentration detection limit ([9]; sulfadimethoxin, three-parameter test): 100 ppb; Ratio of the measurement intensities S/C ([9]; sulfamide 50 ppb): 1.3; Ratio of the measurement intensities S/C ([9]; sulfamide 100 ppb): 0.8; Ratio of the measurement intensities S/C ([9]; sulfamide 150 ppb): 0.6; Ratio of the measurement intensities S/C ([9]; sulfamide 200 ppb): 0.4; Ratio of the measurement intensities B/C ([10]; sulfamide 50 ppb): 2.4; Ratio of the measurement intensities B/C ([10]; sulfamide 100 ppb): 2.2; Ratio of the measurement intensities B/C ([10]; sulfamide 150 ppb): 1.9; Ratio of the measurement intensities B/C ([10]; sulfamide 200 ppb): 2.4

Source: patent US7998754B2, “In vitro method for the simultaneous detection and identification of antibiotics of different classes and corresponding diagnostic kit” (Unisensor S.A., priority 2005, dated 2011)
